Data taken from article PMC7567097, “A nanoluciferase SARS-CoV-2 for rapid neutralization testing and screening of anti-infective drugs for COVID-19” (Nature Communications, 2020).
“And” between values parts separate entries of the source, which are not always exact repeats. Identical values can stand only once. Like-named read-outs stand apart in the source and are kept apart here.

What was measured:
[1] = test system: SARS-CoV-2-Nluc; test: microbe, parasite or virus in culture; assay type: cell-based
[2] = test system: SARS-CoV-2-Nluc; test: microbe, parasite or virus in culture; assay type: cell-based; details: Severe acute respiratory syndrome coronavirus 2, Vero C1008, 48 h
[3] = Cytotoxicity assay (CCK-8, 72 h) in Vero E6 cells; assay type: cell-based, African green monkey; details: African green monkey, Vero E6 cells; for viability at 72 h: Vero, two replicates, read-out: cell viability (% of DMSO control); for CC50 at 72 h: 3-day cytotoxicity
[4] = test system: Vero E6 cells; test: Cytotoxicity assay (CCK-8, 72 h) in Vero E6 cells; assay type: cell-based, African green monkey; details: Vero, two replicates
[5] = test system: A549-hACE2 cells
[6] = in vitro; details: human; for viability: cell viability (% of DMSO control)
[7] = test system: COVID-19; design: method as in PMID 32649078; details: 1063 patients hospitalized with COVID-19; placebo group 15 days; cited from earlier work
[8] = test system: COVID-19; design: method as in PMID 32392282; details: >1400 patients, compared with no treatment; cited from earlier work
[9] = Severe acute respiratory syndrome coronavirus 2, 48 h
[10] = Severe acute respiratory syndrome coronavirus 2, read-out: EC50 (µM) Replicate 1
[11] = Severe acute respiratory syndrome coronavirus 2, read-out: EC50 (µM) Replicate 2

SMILES: CCN(CC)CCCC(C)Nc1ccnc2cc(Cl)ccc12 (stereo not shown) [Chloroquine]
- EC50 [1, 9]: 1.32 ± 0.36 µM
- EC50 [1, 10]: 1.06 µM
- EC50 [1, 11]: 1.57 µM
- EC50 [2]: 3.52 µM
- viability at 72 h ([3]; Concentration 0.00152416): 112%
- viability at 72 h ([3]; Concentration 0.00457247): 113%
- viability at 72 h ([3]; Concentration 0.0137174): 100%
- viability at 72 h ([3]; Concentration 0.123457): 83.5%
- viability at 72 h ([3]; Concentration 0.37037): 80.1%
- viability at 72 h ([3]; Concentration 1.11111): 81.4%
- viability at 72 h ([3]; Concentration 3.33333): 75.3%
- viability at 72 h ([3]; Concentration 10): 76.5%
- CC50 at 72 h [3]: > 50 µM
- cell viability (% of DMSO control) ([4]; Concentration 0.00152416): 109.35%
- cell viability (% of DMSO control) ([4]; Concentration 0.00457247): 115.44%
- cell viability (% of DMSO control) ([4]; Concentration 0.0137174): 94.62%
- cell viability (% of DMSO control) ([4]; Concentration 0.0411523): 86.94% and 111.97%
- cell viability (% of DMSO control) ([4]; Concentration 0.123457): 83.36%
- cell viability (% of DMSO control) ([4]; Concentration 0.37037): 78.26%
- cell viability (% of DMSO control) ([4]; Concentration 1.11111): 94.9%
- cell viability (% of DMSO control) ([4]; Concentration 3.33333): 72.03%
- cell viability (% of DMSO control) ([4]; Concentration 10): 73.87%
- cell viability (% of DMSO control) ([5]; Concentration 0.00152416): 94.76%
- cell viability (% of DMSO control) ([5]; Concentration 0.00457247): 100.03%
- cell viability (% of DMSO control) ([5]; Concentration 0.0137174): 97.21%
- cell viability (% of DMSO control) ([5]; Concentration 0.0411523): 100.16%
- cell viability (% of DMSO control) ([5]; Concentration 0.123457): 98.53%
- cell viability (% of DMSO control) ([5]; Concentration 0.37037): 99.78%
- cell viability (% of DMSO control) ([5]; Concentration 1.11111): 100.72%
- cell viability (% of DMSO control) ([5]; Concentration 3.33333): 101.54%
- cell viability (% of DMSO control) ([5]; Concentration 10): 101.98%
- CC50 ([6]; CC50): > 50 µM
- CC50 ([6]; CC50 (µM) Replicate 1): > 50 µM
- CC50 ([6]; CC50 (µM) Replicate 2): > 50 µM
- viability ([6]; Concentration 0.00152416): 105%
- viability ([6]; Concentration 0.00457247): 106%
- viability ([6]; Concentration 0.0137174): 103%
- viability ([6]; Concentration 0.0411523): 104%
- viability ([6]; Concentration 0.123457): 105%
- viability ([6]; Concentration 0.37037): 104%
- viability ([6]; Concentration 1.11111): 104%
- viability ([6]; Concentration 3.33333): 104%
- viability ([6]; Concentration 10): 108%

SMILES: CCC(CC)COC(=O)[C@H](C)N[P@](=O)(OC[C@H]1O[C@@](C#N)(c2ccc3c(N)ncnn23)[C@H](O)[C@@H]1O)Oc1ccccc1 [Remdesivir]
- EC50 [1, 9]: 0.115 ± 0.007 µM
- EC50 [1, 10]: 0.11 µM
- EC50 [1, 11]: 0.12 µM
- EC50 [2]: 1.28 µM
- viability at 72 h ([3]; Concentration 0.00152416): 100%
- viability at 72 h ([3]; Concentration 0.00457247): 102%
- viability at 72 h ([3]; Concentration 0.0137174): 91.3%
- viability at 72 h ([3]; Concentration 0.0411523): 104%
- viability at 72 h ([3]; Concentration 0.123457): 80.3%
- viability at 72 h ([3]; Concentration 0.37037): 80.3%
- viability at 72 h ([3]; Concentration 1.11111): 102%
- viability at 72 h ([3]; Concentration 3.33333): 87.9%
- viability at 72 h ([3]; Concentration 10): 68%
- CC50 at 72 h [3]: > 50 µM
- cell viability (% of DMSO control) ([4]; Concentration 0.00152416): 98.69%
- cell viability (% of DMSO control) ([4]; Concentration 0.00457247): 100.09%
- cell viability (% of DMSO control) ([4]; Concentration 0.0137174): 99.13%
- cell viability (% of DMSO control) ([4]; Concentration 0.0411523): 93.89%
- cell viability (% of DMSO control) ([4]; Concentration 0.123457): 91.88%
- cell viability (% of DMSO control) ([4]; Concentration 0.37037): 90.48%
- cell viability (% of DMSO control) ([4]; Concentration 1.11111): 90.39%
- cell viability (% of DMSO control) ([4]; Concentration 3.33333): 89.52%
- cell viability (% of DMSO control) ([4]; Concentration 10): 70.92%
- cell viability (% of DMSO control) ([5]; Concentration 0.00152416): 98.72%
- cell viability (% of DMSO control) ([5]; Concentration 0.00457247): 97.64%
- cell viability (% of DMSO control) ([5]; Concentration 0.0137174): 95.55%
- cell viability (% of DMSO control) ([5]; Concentration 0.0411523): 98.85%
- cell viability (% of DMSO control) ([5]; Concentration 0.123457): 98.18%
- cell viability (% of DMSO control) ([5]; Concentration 0.37037): 92.18%
- cell viability (% of DMSO control) ([5]; Concentration 1.11111): 95.21%
- cell viability (% of DMSO control) ([5]; Concentration 3.33333): 90.42%
- cell viability (% of DMSO control) ([5]; Concentration 10): 87.86%
- CC50 ([5]; human): 32.7 ± 5.2 µM
- recovery time [7]: 11 days
- CC50 ([6]; CC50): 32.5 µM
- CC50 ([6]; CC50 (µM) Replicate 1): 29 µM
- CC50 ([6]; CC50 (µM) Replicate 2): 36.4 µM
- viability ([6]; Concentration 0.00152416): 100%
- viability ([6]; Concentration 0.00457247): 99.8%
- viability ([6]; Concentration 0.0137174): 102%
- viability ([6]; Concentration 0.0411523): 102%
- viability ([6]; Concentration 0.123457): 101%
- viability ([6]; Concentration 0.37037): 96.9%
- viability ([6]; Concentration 1.11111): 100%
- viability ([6]; Concentration 3.33333): 101%
- viability ([6]; Concentration 10): 84.9%

SMILES: CC[C@H]1OC(=O)[C@H](C)[C@@H](O[C@H]2C[C@@](C)(OC)[C@@H](O)[C@H](C)O2)[C@H](C)[C@@H](O[C@@H]2O[C@H](C)C[C@H](N(C)C)[C@H]2O)[C@](C)(O)C[C@@H](C)CN(C)[C@H](C)[C@@H](O)[C@]1(C)O [azithromycin]
- association of treatment with fatality rate among hospitalized patients [8]: not associated with significant differences in fatality rate

SMILES: CCN(CCO)CCCC(C)Nc1ccnc2cc(Cl)ccc12 (stereo not shown) [hydroxychloroquine]
- association of treatment with fatality rate among hospitalized patients [8]: not associated with significant differences in fatality rate
